Data reported in PubChem BioAssay AID330 (DTP/NCI, 2004).
Toxic doses and inconclusive results are not listed. The calls were made as follows: active = survival T/C of 150% or more; inactive = T/C below 125% in these data.

Tested on: P388 leukemia ip, CD2F1 mice, survival T/C
Experiment: NCI In Vivo Anticancer Drug Screen. Data for tumor model P388 Leukemia (intraperitoneal) in CD2F1 (CDF1) mice
Details: endpoint: median survival time, higher = longer survival
Procedure, shortened: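 Mice carrying the transplanted tumor received test compound or vehicle. Survival was recorded in each group, and the value is the treated-group measurement divided by that of the vehicle-treated control group.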

[1] = dose: 50.0 mg/kg/injection, schedule: Q01DX005 (ip), vehicle: Klucel (hydroxypropylcellulose) (HPC)
[2] = dose: 100.0 mg/kg/injection, schedule: Q01DX005 (ip), vehicle: Klucel (hydroxypropylcellulose) (HPC)
[3] = dose: 200.0 mg/kg/injection, schedule: Q01DX005 (ip), vehicle: Klucel (hydroxypropylcellulose) (HPC)
[4] = dose: 50.0 mg/kg/injection, schedule: Q01DX005 (ip), vehicle: saline with Tween-80

Measured: T/C

CCOC(=O)/C=C1\COc2nc(N)[nH]c(=O)c2N1
inactive: dose: 12.5 mg/kg/injection, schedule: Q01DX005 (ip), vehicle: Klucel (hydroxypropylcellulose) (HPC) 93 % of control | dose: 25.0 mg/kg/injection, schedule: Q01DX005 (ip), vehicle: Klucel (hydroxypropylcellulose) (HPC) 91 % of control | [1] 89 % of control | [2] 94 % of control | [3] 91 % of control

NC(=O)C(=O)c1c(-c2ccccc2)c(-c2ccccc2)c2n1CCC2
inactive: [1] 100 % of control | [2] 99 % of control | [3] 93 % of control

c1ccc(CC2NCCc3c2[nH]c2ccccc32)cc1 (centres undefined)
inactive: [4] 100 % of control | dose: 100.0 mg/kg/injection, schedule: Q01DX005 (ip), vehicle: saline with Tween-80 99 % of control | dose: 200.0 mg/kg/injection, schedule: Q01DX005 (ip), vehicle: saline with Tween-80 94 % of control

CNc1ncc2c(n1)N(C)C(=O)/C(=C\C(=O)OC)N2
inactive: dose: 40.0 mg/kg/injection, schedule: Q01DX009 (ip), vehicle: saline with Tween-80 101 % of control | dose: 80.0 mg/kg/injection, schedule: Q01DX009 (ip), vehicle: saline with Tween-80 93 % of control | dose: 160.0 mg/kg/injection, schedule: Q01DX009 (ip), vehicle: saline with Tween-80 99 % of control

CC1=C(C)C(=O)OC(C(C)C2CCC3C4CC5OC56C(O)CCC(=O)C6(C)C4CCC23C)C1 (centres undefined)
inactive: dose: 11.3 mg/kg/injection, schedule: Q01DX009 (ip), vehicle: Klucel (hydroxypropylcellulose) (HPC) 101 % of control | dose: 22.6 mg/kg/injection, schedule: Q01DX009 (ip), vehicle: Klucel (hydroxypropylcellulose) (HPC) 101 % of control | dose: 45.2 mg/kg/injection, schedule: Q01DX009 (ip), vehicle: Klucel (hydroxypropylcellulose) (HPC) 100 % of control

CCCCNc1cc(C(F)(F)F)cc(N)c1N
inactive: dose: 50.0 mg/kg/injection, schedule: Q01DX005 (ip), vehicle: saline + Tween-80 + alcohol 105 % of control | dose: 100.0 mg/kg/injection, schedule: Q01DX005 (ip), vehicle: saline + Tween-80 + alcohol 108 % of control | dose: 200.0 mg/kg/injection, schedule: Q01DX005 (ip), vehicle: saline + Tween-80 + alcohol 109 % of control

CCCCC(Nc1nncs1)Nc1nncs1
inactive: dose: 60.0 mg/kg/injection, schedule: Q01DX005 (ip), vehicle: saline with Tween-80 90 % of control | dose: 120.0 mg/kg/injection, schedule: Q01DX005 (ip), vehicle: saline with Tween-80 102 % of control | dose: 240.0 mg/kg/injection, schedule: Q01DX005 (ip), vehicle: saline with Tween-80 96 % of control

CCN(CC)C(=S)Oc1cc(C)nc(SCC(=O)c2ccc(Cl)cc2)n1
inactive: dose: 50.0 mg/kg/injection, schedule: Q01DX009 (ip), vehicle: Klucel (hydroxypropylcellulose) (HPC) 108 % of control | dose: 100.0 mg/kg/injection, schedule: Q01DX009 (ip), vehicle: Klucel (hydroxypropylcellulose) (HPC) 100 % of control | dose: 200.0 mg/kg/injection, schedule: Q01DX009 (ip), vehicle: Klucel (hydroxypropylcellulose) (HPC) 103 % of control

N#CC(C(=O)C(=O)Nc1ccc(Cl)cc1)c1c(Cl)cccc1Cl (centres undefined)
inactive: dose: 100.0 mg/kg/injection, schedule: Q04DX002 (ip), vehicle: saline with Tween-80 105 % of control | dose: 200.0 mg/kg/injection, schedule: Q04DX002 (ip), vehicle: saline with Tween-80 108 % of control | dose: 400.0 mg/kg/injection, schedule: Q04DX002 (ip), vehicle: saline with Tween-80 97 % of control

CC1CCCC(C)N1Cc1ccccc1 (centres undefined)
inactive: dose: 25.0 mg/kg/injection, schedule: Q01DX005 (ip), vehicle: saline with Tween-80 93 % of control | [4] 93 % of control

COC(=O)C(Cl)Cc1cncn1C (centres undefined)
inactive: dose: 50.0 mg/kg/injection, schedule: Q01DX009 (ip), vehicle: saline with Tween-80 94 % of control | dose: 100.0 mg/kg/injection, schedule: Q01DX009 (ip), vehicle: saline with Tween-80 92 % of control | dose: 200.0 mg/kg/injection, schedule: Q01DX009 (ip), vehicle: saline with Tween-80 93 % of control
